From patent publication US10426813B2, “Method to enhance endurance” (KYOWA HAKKO BIO CO., LTD., priority 2009, dated 2019)
Entries after “also recorded” stand apart in the source; their conditions may differ. Peptide text beside a SMILES is read from it.

Columns and labels:
[1] = Time to exhaustion test on cycle ergometer at 75% VO2 max after dehydration and rehydration; format: in vivo, human
From the text: (§1) On four of the five subsequent visits to the HPL, subjects dehydrated to 2.5% of their baseline body mass. On the occasion that a dehydration protocol was not employed, subjects reported to the HPL in a euhydrated state to provide a baseline blood draw and perform the exercise protocol. This trial (T1) provided baseline performance data for how subjects performed in optimal conditions without hydration stress. All performance comparisons were made to this trial. In one trial (T2) subjects achieved their goal weight (−2.5% of baseline body weight) and rested in a recumbent position for 45 minutes before commencing the exercise session. In the subsequent three trials subjects reached their goal weight (−2.5% of baseline body mass) and then rehydrated to −1.5% of their baseline body mass by drinking either water (T3) or two different doses (T4 and T5) of the alanyl-glutamine (ALA-GLU) supplement (0.05 g·kg^−1 and 0.2 g·kg^−1, respectively). During the hydration trials (T3-T5), the exercise protocol began 45 minutes following reaching their goal weight. During this time frame, subjects were rehydrated. The order of the trials was randomly determined.
On the night before testing (5 p.m.), subjects reported to the HPL for weighing and urine specific gravity measures to ascertain that subjects were euhydrated. Subjects were then instructed to not consume any food or water until the next day when they reported back to the HPL (7 a.m.). […] On the morning of trials T2-T5, subjects reporting to the HPL were weighed and began the active dehydration protocol to achieve the desired weight loss. The active dehydration protocol required subjects to walk on a motorized treadmill at 3.4 mi·h^−1 and at a 2% incline. Subjects were fully clothed in a training suit (long cotton heavy weight fleece sweat pants and top). Nude body weight, heart rate, and rating of perceived exertion were monitored at 20-minute increments. […] At the end of the dehydration period, a urine specimen and blood samples were obtained. Dehydration was verified by measuring urine specific gravity and both urine and plasma osmolality. The time necessary to reach the goal body mass (−2.5% weight loss) was 62.5±44.2 min.
(§2) Subjects consumed the supplement or placebo (water) following the dehydration protocol as part of their rehydration to −1.5% of their baseline body mass. The L-alanyl-L-glutamine supplement (0.2 g·kg^−1 or 0.05 g·kg^−1) (Kyowa Hakko USA, New York, N.Y.) was mixed with water and was indistinguishable in appearance and taste from the placebo.
After dehydration and rehydration (except during trial T2), subjects began the exercise protocol. Subjects exercised at a workload that elicited 75% of their VO2 max on a cycle ergometer. Subjects were encouraged to give their best effort during each trial, and were verbally encouraged throughout each exercise trial. Oxygen consumption, minute ventilation, respiratory exchange ratio, and heart rate were measured continuously. Heart rate and blood pressure were recorded before and at the conclusion of exercise. Time to exhaustion was determined as the time that the subject could no longer maintain the workload and/or reach volitional exhaustion.

[2] = Plasma glutamine concentration during hydration stress and endurance exercise; format: in vivo, human
From the text: as §1, §2
A baseline (BL) blood draw occurred during T1. No other blood was drawn during that trial. The BL blood sample was drawn following a 15-min equilibration period prior to exercise. […]
Hemoglobin was analyzed in triplicate from whole blood using the cyanmethemoglobin method (Sigma Diagnostics, St. Louis, Mo.). Hematocrit was analyzed in triplicate from whole blood via microcentrifugation (IEC micro-MB centrifuge, Needham, Mass.) and microcapillary technique. Plasma volume shifts following the workout were calculated using the formula of Dill & Costill (1974). […]

C[C@H](N)C(=O)N[C@@H](CCC(N)=O)C(=O)O [alanyl-glutamine, L-alanyl-L-glutamine] (H-Ala-Gln-OH)
Δ performance: time to exhaustion (difference to T1) ([1]; T4, 0.05 g·kg^−1, compared to T2 (dehydrated, no rehydration)): significantly greater times to exhaustion
trend of inhibiting the decrease in duration of exercise endurance ([1]; T4, 0.05 g·kg^−1, compared to T3 (water only)): even more pronounced
Δ performance: time to exhaustion (difference to T1) ([1]; T5, 0.2 g·kg^−1, compared to T2 (dehydrated, no rehydration)): significantly greater times to exhaustion
trend of inhibiting the decrease in duration of exercise endurance ([1]; T5, 0.2 g·kg^−1, compared to T3 (water only)): even more pronounced
effect on endurance ([1]; overall conclusion, independent of increases in plasma glutamine concentration): endurance enhancing effect
Plasma glutamine concentration ([2]; T4, 0.05 g/kg, compared to T3 (water only)): No differences
Plasma glutamine concentration ([2]; T5, 0.2 g·kg^−1, at RHY and IP, compared to T2-T4): significantly higher; also recorded: significantly increased
AUC of plasma glutamine concentration ([2]; T5, 0.2 g·kg^−1, compared to the other experimental trials): significantly higher
